Molecules are shown by their SMILES.

Here are results for three molecules from ChEMBL document CHEMBL5625196, “Cell-active, irreversible covalent inhibitors that selectively target the catalytic lysine of EGFR by using fluorosulfate-based SuFEx chemistry” (Eur J Med Chem, 2023).

Data set [1] is described as follows: physchem. The following applies: PBS.
Data set [2] in a line: physchem. The following applies: cell-culture medium.
Data set [3] in a line: MRT in Sprague-Dawley rat at 5 mg/kg, po measured after 24 hrs by LC-MS/MS analysis. It counts as ADME, organism-based. The following applies: in vivo.
The nature of data set [4]: MRT in Sprague-Dawley rat at 2 mg/kg, iv measured after 24 hrs by LC-MS/MS analysis. It counts as ADME, organism-based. The following applies: in vivo.
Data set [5] is described as follows: Tmax in Sprague-Dawley rat at 5 mg/kg, po measured after 24 hrs by LC-MS/MS analysis. It counts as ADME, organism-based. The following applies: in vivo.
Data set [6] can be described thus: AUC (0 to t) in Sprague-Dawley rat at 2 mg/kg, iv measured after 24 hrs by LC-MS/MS analysis. It counts as ADME, organism-based. The following applies: in vivo.
A short description of data set [7]: Half-life in Sprague-Dawley rat at 5 mg/kg, po measured after 24 hrs by LC-MS/MS analysis. It counts as ADME, organism-based. The following applies: in vivo.
Data set [8] can be described thus: in vitro. The following applies: dog, MDCK-MDR1.
Data set [9] in a line: in vitro. The following applies: mouse, mouse liver microsomes. For orientation: Liver microsomes are a subcellular fraction often used to study metabolism.
Data set [10] can be described thus: Cmax in Sprague-Dawley rat at 5 mg/kg, po measured after 24 hrs by LC-MS/MS analysis. It counts as ADME, organism-based. The following applies: in vivo.
A short description of data set [11]: Half-life in Sprague-Dawley rat at 2 mg/kg, iv measured after 24 hrs by LC-MS/MS analysis. It counts as ADME, organism-based. The following applies: in vivo.
Data set [12] is described as follows: Clearance in Sprague-Dawley rat at 2 mg/kg, iv measured after 24 hrs by LC-MS/MS analysis. It counts as ADME, organism-based. The following applies: in vivo.
Data set [13] in a line: AUC (0 to t) in Sprague-Dawley rat at 5 mg/kg, po measured after 24 hrs by LC-MS/MS analysis. The following applies: in vivo. It counts as ADME, organism-based.
Data set [14] is described as follows: in vitro. The following applies: dog, MDCK-MDR1. The source holds these as a separate data set.
Data set [15] is described as follows: physchem. The following applies: PBS. This is another data set of the same source.
A short description of data set [16]: AUC (0 to infinity) in Sprague-Dawley rat at 2 mg/kg, iv measured after 24 hrs by LC-MS/MS analysis. It counts as ADME, organism-based. The following applies: in vivo.
Data set [17] can be described thus: Volume of distribution at steady state in Sprague-Dawley rat at 2 mg/kg, iv measured after 24 hrs by LC-MS/MS analysis. It counts as ADME, organism-based. The following applies: in vivo, read-out: Vdss.
Data set [18] is described as follows: in vitro. The following applies: dog, MDCK-MDR1. The source holds these as a separate data set.
A short description of data set [19]: Oral bioavailability in Sprague-Dawley rat at 5 mg/kg measured after 24 hrs by LC-MS/MS analysis. It counts as ADME, organism-based. The following applies: in vivo.
A short description of data set [20]: Apparent volume of distribution in Sprague-Dawley rat at 2 mg/kg, iv measured after 24 hrs by LC-MS/MS analysis. It counts as ADME, organism-based. The following applies: in vivo, read-out: Vz.
A short description of data set [21]: physchem. The following applies: PBS. This is another data set of the same source.
Data set [22] in a line: in vitro. The following applies: dog, MDCK-MDR1. This is another data set of the same source.
Data set [23] is described as follows: AUC (0 to infinity) in Sprague-Dawley rat at 5 mg/kg, po measured after 24 hrs by LC-MS/MS analysis. It counts as ADME, organism-based. The following applies: in vivo.
The conditions of data set [24]: dog, mdck-mdr1, 10 µM.

The half-life is the time in which the quantity being followed falls by half. A low value points to rapid decline. As for `C=CS(=O)(=O)Nc1cccc(Nc2ncnc3cc(OCCOC)c(OCCOC)cc23)c1`, the half-life in “physchem [1]” and in “physchem [2]” was over 24 h in each case.

Usually MRT stands for a mean duration of stay, worked out from the concentration-time curve. Broadly, the Tmax is the time at which the peak concentration occurs. By AUC(0-t) is commonly meant the area under the concentration-time curve up to a stated or last time point. A high value points to high exposure. For orientation: Cmax means the highest concentration seen after dosing. As a reminder, the clearance is a measure of how efficiently the substance is removed, as volume per time. Lower therefore signals a low capacity for elimination. As usually defined, the AUC(0-inf) is the area under the concentration-time curve extrapolated to infinity. Read a high AUC(0-inf) as more exposure. What is called Papp B→A is the apparent permeability from the basolateral to the apical side of a cell layer. For orientation: bioavailability means the share of a dose that reaches the circulation, judged against a reference dose that is usually intravenous. One may read the Papp A→B as how fast a substance crosses the layer from the apical side. Turning to `COCCOc1cc2ncnc(Nc3cccc(OS(=O)(=O)F)c3)c2cc1OCCOC`, the values for the MRT in data set [3] and in data set [4] were 2.48 h and 1.16 h, respectively. Besides, the Tmax in data set [5] turned out to be 2.33 h. For the same molecule, the figures for the AUC(0-t) at 24 h in data set [6] and in [13] were 1920 ng·h/mL and 1530 ng·h/mL, respectively. Also, the half-life in data set [7] is 0.81 h; in [11], 0.93 h; in the data set “physchem [1]”, over 8 h; in “physchem [15]”, over 12 h; in “physchem [2]” it was 24 h; in the data set “physchem [21]” it was over 8 h. Besides, the recovery at 10 µM in “in vitro [8]” was 81.2%; in “in vitro [14]” it was 86.8%. This molecule also showed a half-life at 1 h in “in vitro [9]” of 0.493 h. Moreover, in data set [10], the Cmax worked out at 444 ng/mL. Also, the clearance in data set [12] came to 17.4 mL/min/kg. The AUC(0-inf) in data set [16] worked out at 1920 ng·h/mL; in data set [23], 1540 ng·h/mL. Moreover, the figures for the Vd in data set [17] and in [20] were 1.22 L/kg and 1.4 L/kg, respectively. The Papp B→A at 10 µM in “in vitro [18]” was found to be 3.92 ×10⁻⁶ cm/s. In data set [19], this molecule had a bioavailability of 32%. For the same molecule, in the data set “in vitro [22]”, the Papp A→B at 10 µM came to 1.9 ×10⁻⁶ cm/s.

Turning to `C[C@H]1O[C@@H](O[C@H]2[C@@H](O)C[C@H](O[C@H]3[C@@H](O)C[C@H](O[C@H]4CC[C@@]5(C)[C@H](CC[C@@H]6[C@@H]5C[C@@H](O)[C@]5(C)[C@@H](C7=CC(=O)OC7)CC[C@]65O)C4)O[C@@H]3C)O[C@@H]2C)C[C@H](O)[C@@H]1O` [DIGOXIN], the Papp in data set [24] is listed as 6.41 10^-6 cm/s. Also, the recovery at 10 µM in “in vitro [8]” was 97.9%; in “in vitro [14]”, 105%. Further, the Papp B→A at 10 µM in the data set “in vitro [18]” turned out to be 18.5 ×10⁻⁶ cm/s.
